Data on 3 compounds can be found in paper PMC6628648, “Enabling microbial syringol conversion through structure-guided protein engineering” (Proceedings of the National Academy of Sciences of the …, 2019).

One may read the Km as the substrate concentration at which the rate is half of its maximum. What is called kcat is the maximal rate divided by the concentration of active sites.

In assay [1] the target is T1, GcoA variant F169V (Amycolatopsis sp., UniProt P0DPQ7, F169V).
T1 construct: GST (N, cleaved yes); made in house; host or cells: E. coli Rosetta 2 (DE3)
The assay can be described thus: NADH consumption assay (specific activity) with GcoB. It counts as biochemical, Amycolatopsis sp. ATCC 39116. The following applies: saturating (200 µM) substrate, pH 7.5, 25°C.

For assay [2], the target named is T2, WT GcoA (Amycolatopsis sp., UniProt P0DPQ7).
T2 construct: GST (N, cleaved yes); made in house; host or cells: E. coli Rosetta 2 (DE3)
T2 sequence (P0DPQ7 1-407): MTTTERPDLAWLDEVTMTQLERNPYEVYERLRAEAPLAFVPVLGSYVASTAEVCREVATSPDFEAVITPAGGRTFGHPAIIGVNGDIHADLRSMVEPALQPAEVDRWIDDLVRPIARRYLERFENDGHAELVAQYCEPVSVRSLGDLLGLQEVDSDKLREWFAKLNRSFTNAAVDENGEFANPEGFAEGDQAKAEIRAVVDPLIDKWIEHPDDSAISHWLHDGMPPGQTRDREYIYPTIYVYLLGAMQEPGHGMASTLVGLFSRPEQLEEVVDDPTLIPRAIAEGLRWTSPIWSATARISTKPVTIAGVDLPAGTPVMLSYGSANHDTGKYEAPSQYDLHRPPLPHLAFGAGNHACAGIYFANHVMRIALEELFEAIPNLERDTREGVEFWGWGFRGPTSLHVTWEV
The assay can be described thus: End-point coupling assay (formaldehyde produced per NADH consumed). It counts as biochemical, Amycolatopsis sp. ATCC 39116. The following applies: molar ratio formaldehyde produced per NADH consumed, 200 µM NADH, 200 µM aromatic substrate.

The target in assay [3] is GcoA-F169A (Amycolatopsis sp., UniProt P0DPQ7, F169A). The assay can be described thus: NADH consumption assay (steady-state kinetics, specific activity) with GcoB. The following applies: for Specific activity: NADH consumption, saturating (200 µM) substrate, pH 7.5, 25°C; for NADH disappearance (specific activity): Table S1, saturating substrate.
Assay [4] addresses T3, GcoA variant F169L (Amycolatopsis sp., UniProt P0DPQ7, F169L).
T3 construct: GST (N, cleaved yes); made in house; host or cells: E. coli Rosetta 2 (DE3)
Briefly: NADH consumption assay (specific activity) with GcoB. It counts as biochemical, Amycolatopsis sp. ATCC 39116. The following applies: saturating (200 µM) substrate, pH 7.5, 25°C.

The target of assay [5] is T2, WT GcoA. The assay can be described thus: NADH consumption assay (steady-state kinetics, specific activity) with GcoB. It counts as biochemical, Amycolatopsis sp. ATCC 39116. The note with it: for Specific activity: WT, NADH consumption, saturating (200 µM) substrate, pH 7.5, 25°C.
Where [6] appears, read: WT GcoA, apparent, 0.2 µM GcoAB, 300 µM NADH, 210 µM O2, 0–300 µM substrate, pH 7.5, 25 °C.

T3 sequence (P0DPQ7 whole entry F169L): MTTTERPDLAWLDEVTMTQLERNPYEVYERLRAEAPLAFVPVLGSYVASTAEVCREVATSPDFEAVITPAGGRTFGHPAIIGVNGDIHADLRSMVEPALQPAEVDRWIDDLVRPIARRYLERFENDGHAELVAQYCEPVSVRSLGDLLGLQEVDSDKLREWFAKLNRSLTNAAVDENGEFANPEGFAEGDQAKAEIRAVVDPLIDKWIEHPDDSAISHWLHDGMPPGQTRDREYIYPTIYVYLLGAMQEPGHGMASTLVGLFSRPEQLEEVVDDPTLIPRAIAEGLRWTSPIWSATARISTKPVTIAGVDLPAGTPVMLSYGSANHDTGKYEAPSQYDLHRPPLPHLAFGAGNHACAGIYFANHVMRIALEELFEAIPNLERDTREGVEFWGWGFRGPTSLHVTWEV
T1 sequence (P0DPQ7 whole entry F169V): as the sequence (P0DPQ7 whole entry F169L) above, with L169V counted along it
Chain of GcoA-F169A (P0DPQ7 whole entry F169A): as the sequence (P0DPQ7 whole entry F169L) above, with L169A counted along it

Take `COc1cccc(O)c1O` [3MC, 3-methoxycatechol]: the Specific activity is listed as 5.7 ± 0.3 μmol sec-1 μmol-1 GcoA in assay [1], 5.6 ± 0.8 μmol sec-1 μmol-1 GcoA in assay [3], 0.57 ± 0.2 μmol sec-1 μmol-1 GcoA in assay [4] and 3.2 ± 0.2 μmol sec-1 μmol-1 GcoA in assay [5]. Further, the Coupling efficiency in assay [2] is recorded as 78 ± 3%. Also, the “NADH disappearance (specific activity)” value in assay [3] stood at 5.6 ± 0.8 μM s-1 μmol F169A-1.

Turning to `COc1ccccc1O` [guaiacol, 2-methoxyphenol], the Specific activity is on record as 5.3 ± 0.2 μmol sec-1 μmol-1 GcoA in assay [1], 5.8 ± 0.8 μmol sec-1 μmol-1 GcoA in assay [3], 4.5 ± 0.3 μmol sec-1 μmol-1 GcoA in assay [4] and 5.0 ± 0.1 μmol sec-1 μmol-1 GcoA in assay [5]. For the same compound, the Coupling efficiency in assay [2] is 110 ± 10%. Besides, in assay [3], the “NADH disappearance (specific activity)” value is recorded as 5.8 ± 0.8 μM s-1 μmol F169A-1. Further, the Km in assay [5] (setting [6]) came to 60 ± 10 µM. In addition, the kcat in assay [5] (setting [6]) was determined as 6.8 ± 0.02 s⁻¹.

As to `COc1cccc(OC)c1O` [syringol, 2,6-dimethoxyphenol], the Specific activity in assay [1] came to 4.1 ± 0.8 μmol sec-1 μmol-1 GcoA; in assay [3], 5.1 ± 0.8 μmol sec-1 μmol-1 GcoA; in assay [4], 0.54 ± 0.1 μmol sec-1 μmol-1 GcoA. Moreover, in assay [2], the Coupling efficiency is 7.1 ± 0.8%. Further, in assay [3], the “NADH disappearance (specific activity)” value is recorded as 5.1 ± 0.8 μM s-1 μmol F169A-1. For the same compound, the “demethylation by WT GcoA” value in assay [5] (WT GcoA 0.2 μM, 300 μM NADH, 210 μM O2, pH 7.5, 25 °C) is recorded as “unable to demethylate syringol”.
